Test results from patent publication US20080021106A1, “CELLULAR UPTAKE OF BIOACTIVE AGENTS” (Aesgen, Inc., priority 1999, published 2008).
Read-outs that look alike come from different tables or passages of the source. Where a SMILES comes first, the peptide text is derived from it. [ ]: non-standard residue; d: D form. Sar = CNCC(=O)O

Assays:
Caco-2 cell monolayers [1] = system: Caco-2 cell monolayers
Protocol: (§1) Uptake and permeability of each compound was measured in the apical-to-basolateral direction, with and without vehicle.
(§2) Each compound was tritiated. ^14C-mannitol was used as an evaluation of monolayer/cell integrity (i.e. as a low uptake/permeability marker).
(§3) Uptake and Permeability Assessments. Compound cellular uptake into and permeability across Caco-2 monolayers was measured.
(§4) Monolayer integrity was monitored using ^14C-mannitol permeability. Mannitol uptake was also studied.
(§5) ^14C-mannitol and ^3H-drugs were quantified by liquid scintillation counting. For uptake studies, at designated time points (10 sec, 60 sec, and 5 min), the donor solution was aspirated off. The cell monolayer was washed twice with ice cold HBSS to remove any residual binding and then dissolved in 1 ml of the cell solubilizing agent, Solvable®. The cell lysate (0.5 ml) was added to 5 ml scintillation cocktail (Econosafe®) and counted on liquid scintillation counter (Beckman LS5801, Columbia, Md.). For permeability studies, 0.5 ml of received solution was added to 5 ml scintillation cocktail (Econosafe®) and counted on liquid scintillation counter.
(§6) Since saturated solutions of unknown concentration of drugs were used, absolute uptake could not be calculated.

Caco-2 cell monolayers [2] = system: Caco-2 cell monolayers; remark: listed apart in the source
Protocol: as §1, §2, §3, §4, §5
(§7) Permeability (3) in each experiment was calculated (FIG. 8-12) using eq 1: [formula] where P is permeability, dM/dt is rate of drug mass accumulation (i.e., radioactivity) in receiver compartment, A is area, and Cd is donor drug concentration (i.e., radioactivity). […] Permeability is an absolute measure (units of cm/Sec or velocity) and can be determined even though the absolute drug concentrations were not known.

Caco-2 cell monolayers [3] = assay: Cellular uptake of tritiated drugs and 14C-mannitol into Caco-2 monolayers, with and without vehicle; conditions: saturated solutions, AES-14 / blank AES-14 vs HBSS, up to 5 min
Protocol: as §1, §2, §3, §4, §5, §6

Caco-2 cell monolayers [4] = assay: Caco-2 permeability, apical to basolateral, with and without vehicle; conditions: no vehicle vs with vehicle, 5 min period (FIG. 8-12)
Protocol: as §1, §2, §3, §4, §5, §7

NC(=O)CC[C@H](N)C(=O)O [L-glutamine]
enhancement of cellular uptake by vehicle (Caco-2 cell monolayers [1]): To perhaps a lesser extent, vehicle enhanced | effect of Aesgen-14 vehicle on Caco-2 permeability (in words) (Caco-2 cell monolayers [2]): no effect

CN(CC(=O)O)C(=O)CN [glycylsarcosine] (H-Gly-[Sar]-OH)
enhancement of cellular drug uptake by vehicle (relative uptake vehicle vs HBSS) (Caco-2 cell monolayers [3]): about four-fold | effect of Aesgen-14 vehicle on Caco-2 permeability (in words) (Caco-2 cell monolayers [4]): no effect

NC(=O)C[C@H](N)C(=O)O [L-asparagine]
effect of Aesgen-14 vehicle on Caco-2 permeability (in words) (Caco-2 cell monolayers [2]): no effect

OC[C@@H](O)[C@@H](O)[C@H](O)[C@H](O)CO [Mannitol, mannitol]
effect of vehicle on mannitol relative uptake (in words) (Caco-2 cell monolayers [1]): no effect | effect of vehicle on mannitol permeability (in words) (Caco-2 cell monolayers [2]): no effect
